Experimental data published in patent US10294488B2, “Herbicide-metabolizing cytochrome P450 monooxygenases” (BASF SE, priority 2012, dated 2019).

Legend:
[1] = test system: AmCYP01 (Seq ID 2); test: Herbicide degradation in transgenic yeast cells expressing cytochrome P450 AmCYP01; format: in vitro ADME, Alopecurus myosuroides; settings: transgenic yeast cells (S. cerevisiae BJ5459) expressing AmCYP01, Seq ID 2, recovery of herbicide in reference to control, UPLC-MS/MS
Source text: (§1) The cDNA of CYP450 monooxygenase genes were synthesized with an optimized codon usage for yeast, cloned via uniqueBamHI-SalI restriction sites in the low copy pESC-ura expression vector (Agilent Technologies). Constructs were transformed into S. cerevisiae wild type strain BJ5459 (MATa ura3-5 trp lys2-801 leu2Δ1 his3Δ200 pep4Δ::HIS3 prb1Δ1.6R can1 GAL cir^+; ATCC 208284) using a Yeast Maker Transformation System from Clontech and verified by colony PCR. Positive clones were selected on minimal synthetic-defined media (SD) supplemented with appropriate dropout solution. The strain had no obvious phenotypes. Cells were induced in SG-Ura medium (same composition as SD but with galactose instead of glucose) for 24 h (Pompon et al., Methods in Enzymology 272:51-64 (1996); Urban et al., Eur. J. Biochem. 222:[…] (1994)). Optimal heterologous protein expression was assayed using Western Blot analysis.
(§2) 96 deep well growth plates (STARLAB GmbH) charged with 700 μL SDA medium are inoculated with the respective yeast strains from cryostock and incubated at 30° C., 400 rpm. After 48 h, an aliquot is transferred into a new plate with fresh SDA medium 400 rpm. After 4 h the cultures are spun down, the supernatant discarded and the pellets resuspended in 700 μL pre-warmed SGA media to induce protein expression at 30° C. and 400 rpm. After an incubation time of 24 h, 7 μL herbicide solution (500 μM DMSO stock solution) or solvent control is added to the yeast culture incubated for additional 24 h. The herbicide conversion is stopped by adding 700 μL acetonitrile followed by ultrasonification. The homogenate is prepared for UPLC-MS/MS analysis. The degradation rate was calculated by the determination of the recovery of the herbicide in reference to the control.

[2] = test system: AmCYP03_1 (Seq ID 4); test: Herbicide degradation in transgenic yeast cells expressing cytochrome P450 AmCYP03_1; format: in vitro ADME, Alopecurus myosuroides; settings: transgenic yeast cells (S. cerevisiae BJ5459) expressing AmCYP03_1, Seq ID 4, recovery of herbicide in reference to control, UPLC-MS/MS
Source text: as §1, §2

[3] = test system: AmCYP04 (Seq ID 27); test: Herbicide degradation in transgenic yeast cells expressing cytochrome P450 AmCYP04; format: in vitro ADME, Alopecurus myosuroides; settings: transgenic yeast cells (S. cerevisiae BJ5459) expressing AmCYP04, Seq ID 27, recovery of herbicide in reference to control, UPLC-MS/MS
Source text: as §1, §2

[4] = test system: transgenic plants expressing Am_CYP03 (SEQ ID 4); test: Greenhouse herbicide tolerance of transgenic plants expressing Am_CYP03 (FIG. 1); format: in vivo, Arabidopsis thaliana; settings: plants expressing Am_CYP03 (SEQ ID 4) vs wildtype, different application rates (g/ha)
Procedure: (§3) Transgenic Arabidopsis thaliana plants were assayed for improved tolerance to saflufenacil, 1,5-dimethyl-6-thioxo-3-(2,2,7-trifluoro-3-oxo-4-(prop-2-ynyl)-3,4-dihydro-2H-benzo[b][1,4]oxazin-6-yl)-1,3,5-triazinane-2,4-dione (CAS 1258836-72-4), chlorotoluron, pendimethalin, flumioxazin, butafenacil, acifluorfen, lactofen, bifenox, diuron, sulfentrazon, tepraloxydim, coumarone-derivative herbicides, azine-derivative herbicides in 48-well plates. Therefore, T2 seeds are surface sterilized by stirring for 5 min in ethanol+water (70+30 by volume), rinsing one time with ethanol+water (70+30 by volume) and two times with sterile, deionized water. The seeds are resuspended in 0.1% agar dissolved in water (w/v) Four to five seeds per well are plated on solid nutrient medium consisting of half-strength murashige skoog nutrient solution, pH 5.8 (Murashige and Skoog (1962) Physiologia Plantarum 15: 473-497). Compounds are dissolved in dimethylsulfoxid (DMSO) and added to the medium prior solidification (final DMSO concentration 0.1%). Multi well plates are incubated in a growth chamber at 22° C., 75% relative humidity and 110 μmol Phot*m^2*s^−1 with 14:10 h light: dark photoperiod. Growth inhibition is evaluated seven to ten days after seeding in comparison to wild type plants. Additionally, transgenic T1 Arabidopsis plants were tested for improved tolerance to herbicides in greenhouse studies with the following herbicides: saflufenacil, 1,5-dimethyl-6-thioxo-3-(2,2,7-trifluoro-3-oxo-4-(prop-2-ynyl)-3,4-dihydro-2H-benzo[b][1,4]oxazin-6-yl)-1,3,5-triazinane-2,4-dione (CAS 1258836-72-4), chlorotoluron, pendimethalin, flumioxazin, butafenacil, acifluorfen, lactofen, bifenox, diuron, sulfentrazone, tepraloxydim, coumarone-derivative herbicides, azine-derivative herbicides.

[5] = test system: AmCYP12_1 (Seq ID 45); test: Herbicide degradation in transgenic yeast cells expressing cytochrome P450 AmCYP12_1; format: in vitro ADME, Alopecurus myosuroides; settings: transgenic yeast cells (S. cerevisiae BJ5459) expressing AmCYP12_1, Seq ID 45, recovery of herbicide in reference to control, UPLC-MS/MS
Source text: as §1, §2

[6] = test system: transgenic plants expressing Am_CYP04 (SEQ ID 27); test: Greenhouse herbicide tolerance of transgenic plants expressing Am_CYP04 (FIG. 2); format: in vivo, Arabidopsis thaliana; settings: plants expressing Am_CYP04 (SEQ ID 27) vs wildtype, different application rates (g/ha)
Procedure: as §3

[7] = test system: AmCYP03b (Seq ID 6); test: Herbicide degradation in transgenic yeast cells expressing cytochrome P450 AmCYP03b; format: in vitro ADME, Alopecurus myosuroides; settings: transgenic yeast cells (S. cerevisiae BJ5459) expressing AmCYP03b, recovery of herbicide in reference to control, UPLC-MS/MS
Source text: as §1, §2

Structure (SMILES) | Degradation rate of listed herbicidal compounds within 24 h [1] | Degradation rate of listed herbicidal compounds within 24 h [2] | Degradation rate of listed herbicidal compounds within 24 h [3] | Phenotype (injury) of transgenic plants compared to non-transgenic plants [4] | Degradation rate of listed herbicidal compounds within 24 h [5] | Phenotype (injury) of transgenic plants compared to non-transgenic plants [6] | Degradation rate of listed herbicidal compounds within 24 h [7]
C#CCN1C(=O)C(F)(F)Oc2cc(F)c(-n3c(=O)n(C)c(=S)n(C)c3=O)cc21 [1,5-dimethyl-6-thioxo-3-(2,2,7-trifluoro-3-oxo-4-(prop-2-ynyl)-3,4-dihydro-2H-benzo[b][1,4]oxazin-6-yl)-1,3,5-triazinane-2,4-dione, reference compound] | 17 | 23 | 24 | much less injured | 20 | much less injured | 21
CN(c1c(Cl)ccc(C2=C(O)c3ncccc3C(C)(C)S2(=O)=O)c1Cl)S(C)(=O)=O [Coumarone-derivative 10, N-[2,6-dichloro-3-(8-hydroxy-5,5-dimethyl-6,6-dioxo-thiopyrano[4,3-b]pyridin-7-yl)phenyl]-N-methyl-methanesulfonamide] | 0 | 15 | 19 | – | 0 | – | 9
N#Cc1ccc(C2=C(O)c3ncccc3N(CC(F)F)S2(=O)=O)c(C(F)(F)F)c1 [Coumarone-derivative 2, 4-[1-(2,2-difluoroethyl)-4-hydroxy-2,2-dioxo-pyrido[3,2-c]thiazin-3-yl]-3-(trifluoromethyl)benzonitrile] | 0 | 16 | 0 | – | 24 | – | 7
CC1=NOC(c2c(Cl)ccc(C3=C(O)c4ncccc4C(C)(C)S3(=O)=O)c2Cl)C1 (stereo not shown) [Coumarone-derivative 6, 7-[2,4-dichloro-3-(3-methyl-4,5-dihydroisoxazol-5-yl)phenyl]-5,5-dimethyl-6,6-dioxo-thiopyrano[4,3-b]pyridin-8-ol] | 1 | 2 | 0 | – | 4 | – | 0
COc1ccc(C2=C(O)c3ncccc3C(C)(C)S2(=O)=O)c(C(F)(F)F)n1 [Coumarone-derivative 8, 7-[6-methoxy-2-(trifluoromethyl)-3-pyridyl]-5,5-dimethyl-6,6-dioxo-thiopyrano[4,3-b]pyridin-8-ol] | 0 | 10 | 0 | – | 3 | – | 0
O=S1(=O)Oc2cccnc2C(O)=C1c1c(Cl)cccc1C(F)(F)F [Coumarone-derivative 4, 3-[2-chloro-6-(trifluoromethyl)phenyl]-2,2-dioxo-oxathiino[5,6-b]pyridin-4-ol] | 0 | 4 | 12 | – | 4 | – | 7
O=S1(=O)C(c2c(Cl)cc(Cl)nc2Cl)=C(O)c2ncccc2N1CC(F)F [Coumarone-derivative 1, 1-(2,2-difluoroethyl)-2,2-dioxo-3-(2,4,6-trichloro-3-pyridyl)pyrido[3,2-c]thiazin-4-ol] | 0 | 25 | 31 | – | 10 | – | 18
O=S1(=O)Cc2cccnc2C(O)=C1c1ccccc1C(F)(F)F [Coumarone-derivative 3, 6,6-dioxo-7-[2-(trifluoromethyl)phenyl]-5H-thiopyrano[4,3-b]pyridin-8-ol] | 0 | 0 | 9 | – | 27 | – | 0
COCCOCc1c(Cl)ccc(C2=C(O)c3ncccc3C(C)(C)S2(=O)=O)c1Cl [Coumarone-derivative 7, 7-[2,4-dichloro-3-(2-methoxyethoxymethyl)phenyl]-5,5-dimethyl-6,6-dioxo-thiopyrano[4,3-b]pyridin-8-ol] | 0 | 14 | 7 | – | 5 | – | 6
CCC(CC)Nc1c([N+](=O)[O-])cc(C)c(C)c1[N+](=O)[O-] [pendimethalin, reference compound] | 13 | 24 | 25 | – | 16 | – | 24
Cc1c(Cl)ccc(Cl)c1C1=C(O)c2ncccc2C(C)(C)S1(=O)=O [Coumarone-derivative 11, 7-(3,6-dichloro-2-methyl-phenyl)-5,5-dimethyl-6,6-dioxo-thiopyrano[4,3-b]pyridin-8-ol] | 0 | 0 | 0 | – | 0 | – | 18
CC1(C)c2cccnc2C(O)=C(c2ccc(Cl)nc2Cl)S1(=O)=O [Coumarone-derivative 5, 7-(2,6-dichloro-3-pyridyl)-5,5-dimethyl-6,6-dioxo-thiopyrano[4,3-b]pyridin-8-ol] | 14 | 2 | 22 | – | 15 | – | 17
O=S1(=O)C(c2c(Cl)cc(Cl)nc2Cl)=C(O)c2ncccc2N1CC(F)F [Coumarone-derivative 9, 1-(2,2-difluoroethyl)-2,2-dioxo-3-(2,4,6-trichloro-3-pyridyl)pyrido[3,2-c]thiazin-4-ol] | 0 | 12 | 18 | – | 0 | – | 5
